One assay relates to ABCA1 protein. Briefly: Detection of upregulation of ABCA1 protein in cells (ApoA-I binding, high content image analysis). Format: cell-based. To be noted: THP-1 macrophage cells; for % increase of ABCA1 at 3 μM: 24 hrs with compound; for EC50: ABCA1 protein increasing efficacy. Here is the method:
The ability of compounds of the invention to increase the level of ABCA1 protein is determined in replicate cultures of THP-1 macrophage cells in 96-well microplates. Cells are plated at an initial density of 100,000 cells/well in 100 μl medium and differentiated to adherent macrophages with the addition of PMA (100 nM) for 68 hrs in 10% fetal bovine serum, 3 μl/L of b-mercaptoethanol, RPMI-1640 medium. Then, cells are incubated with RPMI-1640 medium containing 1% FCS, 25 μg/ml acetylated LDL, for 24 hours at 37°. Following incubation with acetylated LDL, cells are washed twice with 50 μl PBS and incubated with 100 μl of RPMI-1640 medium containing the compound of interest solubilized in DMSO for an additional 24 hrs. The final DMSO concentration in presence of cells is maintained at 0.5%. ApoA-I binding assay using High Content Image Analysis is initiated by replacing with fresh medium, RPMI without Phenol Red, 0.2% BSA containing AlexaFluor®647 labeled ApoA-I for 2 h/37° C./5% CO2. Then, cells are fixed with 4% Formaldehyde inPBS (15 min, RT). Following Nuclei are stained with Hoechst solution (3 μM PBS) and Cytoplasm with Cell Mask Blue (2 μg/ml PBS), 15 min, RT. Finally the stained cells are fixed with a second round of formaldehyde treatment. Fixed stained cells are washed and kept in PBS at 4° C. and can be read immediately until one month after preparation.
The Alexa Fluor 647-labeled Apolipoprotein A-I (20 nM) was prepared as follows: Human recombinant Apolipoprotein A-I (ApoA-I) was exchanged to a buffer of 0.02 M NaHCO3 at pH 8.2 on an NAP desalting column (GE Healthcare) and brought to a concentration to 40 μM (1.13 mg/ml) by adjustment with the same buffer. The ApoA-I was fluorescently labeled by incubation with Alexa Fluor carboxylic acid succimidyl ester. (Alexa Fluor 647, Invitrogen A-20006) at a 2:1 molar ratio (Alexa to ApoA-I) for 1 h under shaking at RT. The remaining unconjugated label was removed by buffer exchange to 0.02M NaHCO3 at pH 8.2.
Imaging and data collection were performed on an OPERA confocal microplate imaging reader using a 20× water immersion objective and UV360 or 405 laser to identify the cell nuclei and a 635 laser to identify the fluorescent ApoA-I. Eight fields of view are captured per well. Image capture and analysis was performed with the Acapella software. Background fluorescence detected in control wells without ApoA-I was subtracted.
Using XLfit3 program (ID Business Solutions Ltd. UK), the model 205 for Dose Response One Site is used to calculate the EC50 values. The compounds of the present invention increase the level of ABCA1 protein by more than 45% at a concentration of 3 μM. […] Even more preferably, the compounds of the present invention have EC50 values in a range of 0.1 μM to 3 μM.

The target of a further assay is T1, human CB1 receptor (Homo sapiens, UniProt P21554).
T1 construct: expressed in transfected cells; host or cells: human embryonic kidney (HEK) cells, Semliki Forest Virus system, membrane preparations
Kind of assay: CB1 receptor affinity ([3H]-CP-55,940 displacement, HEK cell membranes). Format: binding. To be noted: displacement of radioligand [3H]-CP-55,940. Here is the method:
(§1) The affinity of the compounds of the invention for cannabinoid receptors was determined using membrane preparations of human embryonic kidney (HEK) cells in which the human CB1 receptor is transiently transfected using a Semliki Forest Virus system in conjunction with [3H]-CP-55,940 as radioligand. After incubation of freshly prepared cell membrane preparation with the [^3H]-ligand, with or without addition of compounds of the invention, separation of bound and free ligand was performed by filtration over glass fiber filters. Radioactivity on the filter was measured by scintillation counting.
(§2) The ability of the compounds to displace the radioligand [^3H]-CP-55,940 was measured at a concentration of 10 μM and values provided as [% inhibition @ 10 μM] both for the CB1 and CB2 receptor assay, The lower % inhibition is, the lower the likelihood of side effects based on CB1 or CB2 receptor inhibition is.

In a further assay the target is T2, human CB2 receptor (Homo sapiens, UniProt P34972).
T2 construct: expressed in transfected cells; host or cells: human embryonic kidney (HEK) cells, Semliki Forest Virus system, membrane preparations
Kind of assay: CB2 receptor affinity ([3H]-CP-55,940 displacement, HEK cell membranes). Format: binding. The settings on record: displacement of radioligand [3H]-CP-55,940. Here is the method: as §1, with “cannabinoid CB2” for “cannabinoid”, “CB2” for “CB1”, “[^3H]-CP-55,940” for “[3H]-CP-55,940”
as §2

Bounds are passed on as bounds.

T2 sequence (P34972 whole entry): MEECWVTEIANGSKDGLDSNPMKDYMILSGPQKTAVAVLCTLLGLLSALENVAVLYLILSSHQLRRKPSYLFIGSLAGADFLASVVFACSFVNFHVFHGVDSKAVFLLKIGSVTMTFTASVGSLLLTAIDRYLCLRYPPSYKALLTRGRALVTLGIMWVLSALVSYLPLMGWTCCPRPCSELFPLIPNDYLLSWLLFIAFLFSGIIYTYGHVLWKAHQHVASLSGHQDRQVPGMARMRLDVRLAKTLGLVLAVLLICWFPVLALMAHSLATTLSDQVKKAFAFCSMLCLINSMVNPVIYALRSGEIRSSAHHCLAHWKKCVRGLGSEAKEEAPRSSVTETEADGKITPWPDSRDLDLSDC
T1 sequence (P21554 whole entry): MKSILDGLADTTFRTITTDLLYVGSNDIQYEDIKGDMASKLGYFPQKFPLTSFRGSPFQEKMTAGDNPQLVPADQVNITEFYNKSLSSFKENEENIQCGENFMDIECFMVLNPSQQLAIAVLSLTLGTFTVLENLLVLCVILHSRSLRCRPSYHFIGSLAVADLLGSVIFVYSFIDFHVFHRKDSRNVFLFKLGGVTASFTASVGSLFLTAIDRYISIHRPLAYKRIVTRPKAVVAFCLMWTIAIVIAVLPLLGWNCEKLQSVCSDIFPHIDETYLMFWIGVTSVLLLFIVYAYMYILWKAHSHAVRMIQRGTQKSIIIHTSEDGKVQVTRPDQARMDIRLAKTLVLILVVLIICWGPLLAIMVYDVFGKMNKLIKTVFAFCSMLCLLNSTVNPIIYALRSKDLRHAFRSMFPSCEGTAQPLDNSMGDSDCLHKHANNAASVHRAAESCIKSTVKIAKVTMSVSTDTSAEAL

Take `Cc1cnccc1C(=O)Nc1cnc(OCC(F)(F)F)c(-c2ccc(Cl)cc2)c1` [Example 18, N-[5-(4-chloro-phenyl)-6-(2,2,2-trifluoro-ethoxy)-pyridin-3-yl]-3-methyl-4-pyridinecarboxylic acid amide]: in the assay on ABCA1 protein, the “% increase of ABCA1 at 3 μM” value was above 45% @ 3 μM. For the same compound, the inhibition – broadly, the drop in the measured response relative to a control, in per cent – at 10 µM on human CB1 receptor amounted to 37%; on human CB2 receptor, 3%.

Take `O=C(Nc1cnc(OCC(F)(F)F)c(-c2ccc(Cl)cc2)c1)c1cncnc1` [Example 19, 5-pyrimidinecarboxylic acid[5-(4-chloro-phenyl)-6-(2,2,2-trifluoro-ethoxy)-pyridin-3-yl]-amide]: the EC50 (as a rule, the concentration that produces a half-maximal response) in the assay on ABCA1 protein is 1390 nM. Moreover, the inhibition at 10 µM on human CB1 receptor is 25%; at human CB2 receptor, -10%.

The compound `Cn1nccc1C(=O)Nc1cnc(OCC(F)(F)F)c(-c2ccc(Cl)cc2)c1` [Example 20, 1-methyl-1H-pyrazole-5-carboxylic acid[5-(4-chloro-phenyl)-6-(2,2,2-trifluoro-ethoxy)-pyridin-3-yl]-amide] returned an EC50 in the assay on ABCA1 protein of 6400 nM. The inhibition at 10 µM on human CB1 receptor amounted to 34%; at human CB2 receptor, 9%.

For `Cc1nc(C)c(C(=O)Nc2cnc(OCC(F)(F)F)c(-c3ccc(Cl)cc3)c2)o1` [Example 21, 2,4-dimethyl-5-oxazolecarboxylic acid[5-(4-chloro-phenyl)-6-(2,2,2-trifluoro-ethoxy)-pyridin-3-yl]-amide], in the assay with ABCA1 protein, the EC50 came to 1370 nM. The inhibition at 10 µM at human CB1 receptor amounted to 29%; at human CB2 receptor, 1%.

Regarding `O=C(Nc1cnc(OCC(F)(F)F)c(-c2ccc(Cl)cc2)c1)c1ccns1` [Example 22, 5-isothiazolecarboxylic acid[5-(4-chloro-phenyl)-6-(2,2,2-trifluoro-ethoxy)-pyridin-3-yl]-amide], the “% increase of ABCA1 at 3 μM” value in the assay on ABCA1 protein was above 45% @ 3 μM. Also, the inhibition at 10 µM was 45% at human CB1 receptor and 8% at human CB2 receptor.

For the compound `Cc1cc(C(=O)Nc2cnc(OCC(F)(F)F)c(-c3ccc(Cl)cc3)c2)n[nH]1` [Example 23, 5-methyl-1H-pyrazole-3-carboxylic acid[5-(4-chloro-phenyl)-6-(2,2,2-trifluoro-ethoxy)-pyridin-3-yl]-amide], the midpoint of the response in the assay with ABCA1 protein, the EC50, lay at 720 nM. Moreover, the inhibition at 10 µM at human CB1 receptor was 12%; on human CB2 receptor, -8%.

With `O=C(Nc1cnc(OCC(F)(F)F)c(-c2ccc(Cl)cc2)c1)c1cc[nH]n1` [Example 24, 1H-pyrazole-3-carboxylic acid[5-(4-chloro-phenyl)-6-(2,2,2-trifluoro-ethoxy)-pyridin-3-yl]-amide], the EC50 in the assay with ABCA1 protein was 2310 nM. Moreover, the inhibition at 10 µM at human CB1 receptor is 25%; at human CB2 receptor, -1%.

Consider `Cc1cc(C(=O)Nc2cnc(OCC(F)(F)F)c(-c3ccc(Cl)cc3)c2)ccn1` [Example 25, N-[5-(4-chloro-phenyl)-6-(2,2,2-trifluoro-ethoxy)-pyridin-3-yl]-2-methyl-4-pyridinecarboxylic acid amide], for which the EC50 with ABCA1 protein is 2650 nM. Also, the inhibition at 10 µM is 25% at human CB1 receptor and -1% on human CB2 receptor.

In the case of `Cc1cnc(C(=O)Nc2cnc(OCC(F)(F)F)c(-c3ccc(Cl)cc3)c2)s1` [Example 26, 5-methyl-2-thiazole-carboxylic acid[5-(4-chloro-phenyl)-6-(2,2,2-trifluoro-ethoxy)-pyridin-3-yl]-amide], the “% increase of ABCA1 at 3 μM” value in the assay with ABCA1 protein is given as above 45% @ 3 μM. The inhibition at 10 µM at human CB1 receptor came to 37%; at human CB2 receptor it was 11%.

As to `Cc1nnsc1C(=O)Nc1cnc(OCC(F)(F)F)c(-c2ccc(Cl)cc2)c1` [Example 27, 4-methyl-1,2,3-thiadiazole-5-carboxylic acid[5-(4-chloro-phenyl)-6-(2,2,2-trifluoro-ethoxy)-pyridin-3-yl]-amide], in the assay with ABCA1 protein, the “% increase of ABCA1 at 3 μM” value was above 45% @ 3 μM. In addition, the inhibition at 10 µM came out at 47% on human CB1 receptor and 10% at human CB2 receptor.

For the compound `Cc1ccc(C(=O)Nc2cnc(OCC(F)(F)F)c(-c3ccc(Cl)cc3)c2)cn1` [Example 28, N-[5-(4-chloro-phenyl)-6-(2,2,2-trifluoro-ethoxy)-pyridin-3-yl]-6-methyl-3-pyridinecarboxylic acid amide], the “% increase of ABCA1 at 3 μM” value in the assay with ABCA1 protein is above 45% @ 3 μM. Further, the inhibition at 10 µM at human CB1 receptor was 36%; on human CB2 receptor, -6%.

With `Cc1ncccc1C(=O)Nc1cnc(OCC(F)(F)F)c(-c2ccc(Cl)cc2)c1` [Example 29, N-[5-(4-chloro-phenyl)-6-(2,2,2-trifluoro-ethoxy)-pyridin-3-yl]-2-methyl-3-pyridinecarboxylic acid amide], the “% increase of ABCA1 at 3 μM” value in the assay on ABCA1 protein is recorded as above 45% @ 3 μM. The results for the inhibition at 10 µM at human CB1 receptor and at human CB2 receptor were 41% and 19%, respectively.

In turn, `O=C(Nc1cnc(OCC(F)(F)F)c(-c2ccc(Cl)cc2)c1)c1ccno1` [Example 30, 5-isoxazolecarboxylic acid[5-(4-chloro-phenyl)-6-(2,2,2-trifluoro-ethoxy)-pyridin-3-yl]-amide] showed an EC50 with ABCA1 protein of 3860 nM. The inhibition at 10 µM on human CB1 receptor was 27%; at human CB2 receptor, -4%.

`Cc1noc(C)c1C(=O)Nc1cnc(OCC(F)(F)F)c(-c2ccc(Cl)cc2)c1` [Example 31, 3,5-dimethyl-4-isoxazolecarboxylic acid[5-(4-chloro-phenyl)-6-(2,2,2-trifluoro-ethoxy)-pyridin-3-yl]-amide]: the “% increase of ABCA1 at 3 μM” value in the assay with ABCA1 protein is given as above 45% @ 3 μM. The inhibition at 10 µM is 44% on human CB1 receptor and 7% on human CB2 receptor.

Compound `O=C(Nc1cnc(OCC(F)(F)F)c(-c2ccc(Cl)cc2)c1)c1ccnc(O)c1` [Example 32, N-[5-(4-chloro-phenyl)-6-(2,2,2-trifluoro-ethoxy)-pyridin-3-yl]-1,2-dihydro-2-oxo-4-pyridinecarboxylic acid amide] returned an EC50 in the assay on ABCA1 protein of 1000 nM. Besides, the inhibition at 10 µM on human CB1 receptor was determined as 21%; at human CB2 receptor, 0.9%.

With `Cc1nn(C)cc1C(=O)Nc1cnc(OCC(F)(F)F)c(-c2ccc(Cl)cc2)c1` [Example 33, 1,3-dimethyl-1H-pyrazole-4-carboxylic acid[5-(4-chloro-phenyl)-6-(2,2,2-trifluoro-ethoxy)-pyridin-3-yl]-amide], the “% increase of ABCA1 at 3 μM” value in the assay on ABCA1 protein is above 45% @ 3 μM. The results for the inhibition at 10 µM on human CB1 receptor and on human CB2 receptor were 22% and -2%, respectively.

`O=C(Nc1cnc(OCC(F)(F)F)c(-c2ccc(Cl)cc2)c1)c1ccncn1` [Example 34, 4-pyrimidinecarboxylic acid[5-(4-chloro-phenyl)-6-(2,2,2-trifluoro-ethoxy)-pyridin-3-yl]-amide] came in with an EC50 with ABCA1 protein of 2400 nM. Moreover, the inhibition at 10 µM at human CB1 receptor worked out at 31%; at human CB2 receptor, 10%.

For `O=C(Nc1cnc(OCC(F)(F)F)c(-c2ccc(Cl)cc2)c1)c1nccs1` [Example 35, 2-thiazolecarboxylic acid[5-(4-chloro-phenyl)-6-(2,2,2-trifluoro-ethoxy)-pyridin-3-yl]-amide], in the assay on ABCA1 protein, the “% increase of ABCA1 at 3 μM” value was above 45% @ 3 μM. Besides, the inhibition at 10 µM was 18% on human CB1 receptor and -3% at human CB2 receptor.

The record behind these values is US8410107B2, “N-pyridin-3-yl or N-pyrazin-2-yl carboxamides” (Hoffmann-La Roche Inc., priority 2010, dated 2013).
